Reference: patent US5789625A, “Metal-ligand complex catalyzed processes” (priority 1996, dated 1998)

Columns and labels:
[1] = cited from earlier work
[2] = Extraction experiment: partitioning of base from butyraldehyde to equimolar aqueous H3PO3 (Example 5, Table A); format: physicochemical
Method: The following series of experiments were performed in order to determine the relationship of the pKa of a base to the effectiveness of the base to remain in the organic phase upon contact with an equimolar aqueous acid solution. In all cases the experiments were performed under nitrogen, unless otherwise specified.
Solutions were prepared by dissolving a quantity of acid or base in solvent so that the final concentration was equal to 0.1 moles/liter. The 1×10^-3 moles/liter solutions were prepared by taking an aliquot of the 0.1 moles/liter solution and diluting to the specified concentration. The 1×10^-5 moles/liter solutions were prepared in the same manner as the 1×10^-3 moles/liter solution with the modification of using an aliquot of the 1×10^-3 moles/liter solution in place of the 0.1 moles/liter solution.
In each extraction experiment, 5 milliliters of base solution in butyraldehyde was added to a clean, dry vial. To this vial was added 5 milliliters of equimolar H3 PO3 solution. The resulting mixture was rapidly shaken for several minutes and then allowed to phase separate. A 1 milliliter aliquot of the aqueous layer was then transferred to a clean, dry vial. To this vial was added 1 milliliter of pH 7 sodium/potassium phosphate buffer and 0.1 milliliter of Tergitol® 15-S-9 surfactant. The solution was shaken vigorously, and an aliquot was analyzed by high performance liquid chromatography for base content. The amount of base was then compared with a dichloromethane solution at the initial concentration. The partition coefficients calculated are for partitioning of the base from the organic phase to the water phase and is defined as K=amount of base in the water phase/amount of base in the organic phase.

[3] = Stability of Ligand F in butyraldehyde solution containing rhodium, by HPLC (Examples 2-4); format: physicochemical; settings: for concentration of Ligand F remaining: 0.017 grams phosphorous acid added to 12 gram solution, start 0.39; for change in concentration of Ligand F: no added acid or benzimidazole, 200 ppm rhodium, 0.39 wt% Ligand F in butyraldehyde
[4] = base 1 × 10^-3 moles/liter in butyraldehyde, H3PO3 1 × 10^-3 moles/liter
[5] = base 1 × 10^-5 moles/liter in butyraldehyde, H3PO3 1 × 10^-5 moles/liter

K (amount of base in the water phase/amount of base in the organic phase) [2, 4]	K (amount of base in the water phase/amount of base in the organic phase) [2, 5]	SMILES	pKa of base [1]	concentration of Ligand F remaining ([3]; 24 hours)	concentration of Ligand F remaining ([3]; 72 hours)	change in concentration of Ligand F ([3]; 24 hours)	change in concentration of Ligand F ([3]; 72 hours)
–	–	O=C1CCCN1Cc1ccccc1 [1-benzyl-2-pyrrolidinone]	-0.7	–	–	–	–
0.22	0.30	c1ccc(Cc2ccccn2)cc1 [2-benzylpyridine]	–	–	–	–	–
–	–	CC(C)(C)c1cc(-c2cc(C(C)(C)C)cc(C(C)(C)C)c2Op2oc3ccccc3c3ccccc3o2)c(Op2oc3ccccc3c3ccccc3o2)c(C(C)(C)C)c1 [Ligand F]	–	0.12 percent by weight	0.04 percent by weight	No change	No change
0.93	0.00	CC(=O)c1cccnc1 [3-acetylpyridine]	3.3	–	–	–	–
